{
  "source": "paper PMC3712822",
  "about": "(Pharmacotherapy, 2011)",
  "key": {"CYP3A [1]": {"system": "CYP3A", "conditions": "classification by the United States Food and Drug Administration; cited from earlier work"}, "[2]": {"assay": "Plasma clarithromycin partial AUC in the atorvastatin plus clarithromycin phase", "assay_type": "in vivo", "conditions": "human, oral, 500 mg, Partial AUC of clarithromycin (hrs 2–10), clarithromycin 500 mg twice/day, day 4, mean ± SD"}, "CYP3A [3]": {"system": "CYP3A", "conditions": "cited from earlier work"}, "human myocytes": {"system": "human myocytes", "conditions": "in vitro; cited from earlier work"}, "[4]": {"conditions": "for AUC(0-inf) / half-life / Tmax / Cmax: human, plasma, oral; for AUC(0-inf): AUC0–∞; for AUC(0-inf) / Tmax / Cmax: median (IQR); for half-life: harmonic mean ± SD; for Cmax: atorvastatin + clarithromycin 500 mg twice/day"}, "[5]": {"conditions": "patients taking atorvastatin; cited from earlier work"}, "[6]": {"conditions": "20 mg, CYP3A5 expressors (n=10), atorvastatin only"}, "[7]": {"conditions": "20 mg, CYP3A5 nonexpressors (n=13), atorvastatin only"}, "[8]": {"conditions": "CYP3A5 expressors (n=10), atorvastatin + clarithromycin"}, "[9]": {"conditions": "CYP3A5 nonexpressors (n=13), atorvastatin + clarithromycin"}},
  "note": "Where two headings read alike, the source gives them in different places.",
  "data": [
    {"smiles": "CC[C@H]1OC(=O)[C@H](C)[C@@H](O[C@H]2C[C@@](C)(OC)[C@@H](O)[C@H](C)O2)[C@H](C)[C@@H](O[C@@H]2O[C@H](C)C[C@H](N(C)C)[C@H]2O)[C@](C)(OC)C[C@@H](C)C(=O)[C@H](C)[C@@H](O)[C@]1(C)O", "note": "[clarithromycin]", "values": [
      {"measurement": "CYP3A inhibitor classification", "setting": "CYP3A [1]", "value": "strong CYP3A inhibitor"},
      {"measurement": "AUC", "setting": "[2]; CYP3A5 expressors", "value": 17700, "unit": "µg·h/mL"},
      {"measurement": "AUC", "setting": "[2]; CYP3A5 nonexpressors", "value": 21900, "unit": "µg·h/mL"}
    ]},
    {"smiles": "CC(C)c1c(C(=O)Nc2ccccc2)c(-c2ccccc2)c(-c2ccc(F)cc2)n1CC[C@@H]1C[C@@H](O)CC(=O)O1", "note": "[atorvastatin lactone]", "values": [
      {"measurement": "Affinity for CYP3A relative to atorvastatin acid", "setting": "CYP3A [3]", "value": "higher affinity"},
      {"measurement": "Toxicity to human myocytes relative to the acid form", "setting": "human myocytes", "value": "more toxic"},
      {"measurement": "AUC0–∞ higher in nonexpressors than in expressors", "setting": "[4]; atorvastatin-only phase, p=0.038", "value": 36, "unit": "%"},
      {"measurement": "AUC(0-inf)", "setting": "[4]; [6]", "value": 0.0349, "unit": "µg·h/mL"},
      {"measurement": "AUC(0-inf)", "setting": "[4]; [7]", "value": 0.0476, "unit": "µg·h/mL"},
      {"measurement": "half-life", "setting": "[4]; [6]", "value": "10.9 ± 4.5", "unit": "h"},
      {"measurement": "half-life", "setting": "[4]; [7]", "value": "13.6 ± 5.2", "unit": "h"},
      {"measurement": "Tmax", "setting": "[4]; [6]", "value": 2, "unit": "h"},
      {"measurement": "Tmax", "setting": "[4]; [7]", "value": 1, "unit": "h"},
      {"measurement": "AUC(0-inf)", "setting": "[4]; [8]", "value": 0.11, "unit": "µg·h/mL"},
      {"measurement": "AUC(0-inf)", "setting": "[4]; [9]", "value": 0.127, "unit": "µg·h/mL"},
      {"measurement": "Cmax", "setting": "[4]; CYP3A5 expressors (n=10)", "value": 4.2, "unit": "ng/mL"},
      {"measurement": "Cmax", "setting": "[4]; CYP3A5 nonexpressors (n=13)", "value": 4.2, "unit": "ng/mL"},
      {"measurement": "half-life", "setting": "[4]; [8]", "value": "19.3 ± 5.4", "unit": "h"},
      {"measurement": "half-life", "setting": "[4]; [9]", "value": "19.2 ± 5.2", "unit": "h"},
      {"measurement": "Tmax", "setting": "[4]; [8]", "value": 5, "unit": "h"}
    ]},
    {"smiles": "CC(C)c1c(C(=O)Nc2ccccc2)c(-c2ccccc2)c(-c2ccc(F)cc2)n1CC[C@@H](O)C[C@@H](O)CC(=O)O", "note": "[atorvastatin acid, atorvastatin]", "values": [
      {"measurement": "Patients experiencing muscle-related adverse effects", "setting": "[5]", "value": "3–8%"}
    ]}
  ]
}
